What all share (format): cell-based
One data set addresses T1, RXRα (Homo sapiens, UniProt P19793).
T1 construct: expressed in transfected cells; host or cells: UAS-GFP x KMT2A-MLLT3 cells (retroviral transduction)
T1 sequence (P19793 227-458 limits assumed): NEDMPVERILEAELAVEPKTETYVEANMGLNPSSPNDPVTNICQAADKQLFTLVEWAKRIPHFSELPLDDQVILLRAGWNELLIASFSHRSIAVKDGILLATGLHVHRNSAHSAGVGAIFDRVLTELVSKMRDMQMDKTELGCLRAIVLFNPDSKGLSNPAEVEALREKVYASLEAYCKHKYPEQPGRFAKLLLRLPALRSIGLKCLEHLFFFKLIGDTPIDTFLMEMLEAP
In words: UAS/Gal4 GFP reporter assay of RXRα activation in UAS-GFP x KMT2A-MLLT3 cells. The settings on record: RXRα activation; value (SD); Table 1 does not say whether GFP or Luc assay; read-out: EC50 (nM) +/−(SD). As for the experimental part: Cells were treated, and after 48 h, GFP measured by a ZE5 Flow Cytometer (Biorad).
(In general: Reporter assays use an easily measured gene product as a stand-in for the process of interest.)

Data set [1] deals with T2, RXR-LXR heterodimer (LXR/LXRE) (Homo sapiens, UniProt P19793).
T2 construct: expressed in transfected cells; host or cells: HEK293 cells
T2 sequence (P19793 1-462): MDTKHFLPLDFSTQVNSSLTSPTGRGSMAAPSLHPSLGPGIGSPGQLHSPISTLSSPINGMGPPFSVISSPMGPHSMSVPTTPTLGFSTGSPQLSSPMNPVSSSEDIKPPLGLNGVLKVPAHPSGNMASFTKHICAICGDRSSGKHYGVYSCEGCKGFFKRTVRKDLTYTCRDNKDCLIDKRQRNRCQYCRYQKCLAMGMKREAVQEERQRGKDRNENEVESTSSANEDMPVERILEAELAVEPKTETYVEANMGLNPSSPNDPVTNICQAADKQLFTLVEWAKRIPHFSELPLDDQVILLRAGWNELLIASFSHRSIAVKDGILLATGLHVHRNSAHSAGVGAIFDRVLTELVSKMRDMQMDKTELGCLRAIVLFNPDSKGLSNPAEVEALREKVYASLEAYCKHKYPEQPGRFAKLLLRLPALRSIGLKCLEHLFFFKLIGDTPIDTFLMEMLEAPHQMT
T2 sequence (Q13133 1-447 partner): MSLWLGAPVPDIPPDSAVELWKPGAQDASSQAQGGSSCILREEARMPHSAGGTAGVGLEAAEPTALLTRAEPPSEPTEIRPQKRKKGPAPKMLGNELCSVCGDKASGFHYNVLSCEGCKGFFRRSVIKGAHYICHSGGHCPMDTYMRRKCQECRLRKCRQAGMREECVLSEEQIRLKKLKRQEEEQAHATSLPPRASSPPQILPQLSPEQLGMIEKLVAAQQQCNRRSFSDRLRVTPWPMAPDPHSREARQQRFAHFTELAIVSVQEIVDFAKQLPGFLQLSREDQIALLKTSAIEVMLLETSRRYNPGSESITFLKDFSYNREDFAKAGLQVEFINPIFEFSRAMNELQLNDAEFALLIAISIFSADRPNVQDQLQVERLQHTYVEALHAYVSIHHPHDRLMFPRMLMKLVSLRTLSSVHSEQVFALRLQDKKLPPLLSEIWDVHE
In words: LXRE-luciferase transactivation assay in HEK293 cells. Particulars: for LXRE Activity (% of Bex): 100 nM compound alone, HEK293, bexarotene (1) set to 100%; for LHS Score (vs. Bex): LXRE Heterodimer Specificity: LXRE:RXRE activity ratio, compound 1 set to 1.0. As for the experimental part:
The activation from this natural LXRE in our system was tested in the presence of either 100 nM RXR agonists alone or in combination with 100 nM of both the RXR agonist and LXR agonist T0901317 (TO). […] The LXRE-mediated assays were performed using human embryonic cells (HEK293) seeded at a density of 60,000 cells/well in a 24-well plate and maintained in DMEM (Hyclone) supplemented with 10% fetal bovine serum, 100 µg/mL streptomycin, 100 U/mL penicillin (Invitrogen, Carlsbad, CA, USA) at 37 degrees Celsius, 5% CO2 for 24 h. The cells were co-transfected with 250 ng of an LXRE-luciferase reporter gene, 50 ng of pSG5-human RXRα, and 20 ng of renilla control plasmid. […] After 24 h post treatment, the cells were lysed and the transcriptional activity mediated by the LXRE was measured using the Dual Luciferase Assay System (Promega, Madison, WI) in a Sirius FB12 luminometer (Berthold Detection Systems, Pforzheim, Germany) according to the manufacturer’s protocol. The data are a compilation of between three and six independent assays with each treatment group dosed in triplicate for each independent assay. […] Bars on all graphs indicate standard deviation of the replicate experiments.
Cells were transfected for 24 h utilizing a liposome-mediated transfection protocol and then treated with the ethanol vehicle, or 100 nM of the indicated compound alone or in combination with 100 nM TO901317 (TO). […] (A) Human HEK-293 cells were transfected and treated as described in Figure 8.

Another data set addresses T3, human RARα (Homo sapiens, UniProt P10276).
T3 construct: expressed in transfected cells; host or cells: HEK293 cells
T3 sequence (P10276 1-462): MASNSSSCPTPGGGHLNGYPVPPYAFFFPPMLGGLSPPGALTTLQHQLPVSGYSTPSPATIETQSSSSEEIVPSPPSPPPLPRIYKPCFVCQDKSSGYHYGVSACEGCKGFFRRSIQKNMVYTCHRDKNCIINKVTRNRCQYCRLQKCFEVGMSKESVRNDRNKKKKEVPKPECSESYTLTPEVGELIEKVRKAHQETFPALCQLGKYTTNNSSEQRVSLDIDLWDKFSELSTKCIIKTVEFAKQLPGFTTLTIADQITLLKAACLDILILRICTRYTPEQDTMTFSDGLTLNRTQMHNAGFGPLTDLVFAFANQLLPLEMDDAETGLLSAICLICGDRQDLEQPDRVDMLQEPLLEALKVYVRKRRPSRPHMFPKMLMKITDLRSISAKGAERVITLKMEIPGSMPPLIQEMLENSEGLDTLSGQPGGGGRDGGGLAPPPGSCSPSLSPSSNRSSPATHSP
In words: RARE-luciferase reporter assay in HEK293 cells. Particulars: HEK293, all-trans-RA set to 100%. The procedure: Human embryonic kidney cells (HEK293) were plated at 60,000 cells per well in a 24-well plate and maintained as described above. After 24 h, the cells were transfected with 250 ng pTK-DR5(X2)-Luc, 25 ng pCMX-human RARα, and 20 ng renilla utilizing 1.25 µL polyethylenimine (PEI) per well for 24 h. The sequence of the double DR5 RARE is: 5′-[…]-3′ (DR5 responsive elements underlined). The cells were treated with ethanol vehicle (0.1%), all-trans-retinoic acid (RA, the ligand for RAR), or the indicated rexinoid at a final concentration of 10 nM. After 24 h of treatment, the retinoid activity was measured as described above (dual luciferase assay). […] Three independent assays were conducted with triplicate samples for each treatment group. The value for RA was set to 100%. […]

The subject of another data set is Saccharomyces cerevisiae. Description: Saccharomyces cerevisiae toxicity assay. Particulars: 3 h incubation, colony count vs DMSO only control; highest concentration tested 11 µg/µL. The procedure:
These compounds were also assessed for mutagenicity and toxicity in Saccharomyces cerevisiae and the toxicity results are summarized in Table 1. No compound was mutagenic in this assay.
All compounds were tested for toxicity and mutagenicity using a Saccharomyces cerevisiae based assay as described previously. Toxicity was assessed in this assay (Table 1), comparing growth on plates to control treatments. Compounds were solubilized in DMSO at increasing concentrations and cells were incubated with the compounds for 3 h before plating on selective media or YPD to assess toxicity and mutagenicity. Cytotoxicity was assessed as described. Growth of colonies on the full nutrient YPD plate for each treatment was compared to the DMSO only control. The concentration at which 50% cell death (as indicated by colony count compared to DMSO only control) +/−10% cell death is reported as the 50% killing rate. The highest concentration tested was 11 µg/µL.

For the compound `CCN(c1ccc(OCC(C)C)c(C(C)C)c1)c1ccc(C(=O)O)cn1` [Compound 25, 6-(ethyl(4-isobutoxy-3-isopropylphenyl)amino)nicotinic acid], the EC50 on RXRα is 274 nM. For the same compound, the “LXRE Activity (% of Bex)” value in data set [1] was 72.4 % of Bex. Besides, the “RARE Activity (%RA at 10 nM)” value on human RARα is listed as 2.9 %RA. In the data set with Saccharomyces cerevisiae, the “Cyto-Toxicity (50% Cell Death)” value was “none”.
Consider `CCN(c1ccc(C(=O)O)cc1)c1ccc(OCC(C)C)c(C(C)C)c1` [Compound 30, 4-(ethyl(4-isobutoxy-3-isopropylphenyl)amino)benzoic acid], for which the EC50 on RXRα is 397 nM. Further, the “LXRE Activity (% of Bex)” value in data set [1] was 60.2 % of Bex. Moreover, at human RARα, the “RARE Activity (%RA at 10 nM)” value turned out to be 1.1 %RA. Further, in the data set on Saccharomyces cerevisiae, the “Cyto-Toxicity (50% Cell Death)” value worked out at 0.08 µg/µL.
Turning to `C=C(c1ccc(C(=O)O)c(O)c1)c1ccc2c(c1)C(C)(C)CCC2(C)C` [Compound 37b, 2-Hydroxy-4-(1-(5,5,8,8-tetramethyl-5,6,7,8-tetrahydronaphthalen-2-yl)vinyl)benzoic Acid], at RXRα, the EC50 stood at 413 nM. In data set [1], the “LXRE Activity (% of Bex)” value is 69.1 % of Bex and the “LHS Score (vs. Bex)” value came to 0.91. Besides, the “RARE Activity (%RA at 10 nM)” value on human RARα is 5.2 %RA. Moreover, the “Cyto-Toxicity (50% Cell Death)” value in the data set with Saccharomyces cerevisiae came to 0.5 µg/µL.
In the case of `C=C(c1ncc(C(=O)O)cn1)c1cc2c(cc1C)C(C)(C)CC2(C)C` [Compound 32, 2-(1-(1,1,3,3,6-pentamethyl-2,3-dihydro-1H-inden-5-yl)vinyl)pyrimidine-5-carboxylic Acid], the EC50 on RXRα came to 34.4 nM. Also, in data set [1], the “LXRE Activity (% of Bex)” value is listed as 46.0 % of Bex and the “LHS Score (vs. Bex)” value was 0.38. For the same compound, the “RARE Activity (%RA at 10 nM)” value on human RARα came to 12.9 %RA. Besides, the “Cyto-Toxicity (50% Cell Death)” value in the data set on Saccharomyces cerevisiae was “none”.
With `C=C(c1ccc(C(=O)O)c(O)c1)c1cc2c(cc1C)C(C)(C)CCC2(C)C` [Compound 37a, 2-Hydroxy-4-(1-(3,5,5,8,8-pentamethyl-5,6,7,8-tetrahydronaphthalen-2-yl)vinyl)benzoic acid], at RXRα, the EC50 came to 24.2 nM. In data set [1], the “LXRE Activity (% of Bex)” value was 91.1 % of Bex and the “LHS Score (vs. Bex)” value turned out to be 0.45. Besides, at human RARα, the “RARE Activity (%RA at 10 nM)” value came to 2.9 %RA. For the same compound, the “Cyto-Toxicity (50% Cell Death)” value in the data set on Saccharomyces cerevisiae is 1 µg/µL.
On to `CCN(c1ccc(OCC(C)C)c(C(C)C)c1)c1ncc(C(=O)O)cn1` [Compound 28, 2-(ethyl(4-isobutoxy-3-isopropylphenyl)amino)pyrimidine-5-carboxylic acid], for which, at RXRα, the EC50 came out at 297 nM. The “LXRE Activity (% of Bex)” value in data set [1] is recorded as 77.7 % of Bex. For the same compound, the “RARE Activity (%RA at 10 nM)” value on human RARα is recorded as 1.6 %RA. Moreover, in the data set with Saccharomyces cerevisiae, the “Cyto-Toxicity (50% Cell Death)” value is 1 µg/µL.
Turning to `C=C(c1ccc2c(c1)C(C)(C)CCC2(C)C)c1ncc(C(=O)O)cn1` [Compound 34, 2-(1-(5,5,8,8-tetramethyl-5,6,7,8-tetrahydronaphthalen-2-yl)vinyl)pyrimidine-5-carboxylic acid], the EC50 on RXRα is 56.2 nM. For the same compound, in data set [1], the “LXRE Activity (% of Bex)” value is on record as 77.6 % of Bex and the “LHS Score (vs. Bex)” value turned out to be 0.70. On human RARα, the “RARE Activity (%RA at 10 nM)” value amounted to 10.3 %RA. Also, in the data set on Saccharomyces cerevisiae, the “Cyto-Toxicity (50% Cell Death)” value is “none”.
`C=C(c1ccc(C(=O)O)c(F)c1)c1ccc2c(c1)C(C)(C)CCC2(C)C` [Compound 36, 2-fluoro-4-(1-(5,5,8,8-tetramethyl-5,6,7,8-tetrahydronaphthalen-2-yl)vinyl)benzoic Acid]: the EC50 on RXRα worked out at 375 nM. Moreover, the “LXRE Activity (% of Bex)” value in data set [1] was 85.2 % of Bex. On human RARα, the “RARE Activity (%RA at 10 nM)” value is 1.4 %RA. Also, in the data set on Saccharomyces cerevisiae, the “Cyto-Toxicity (50% Cell Death)” value stood at 0.08 µg/µL.
In the case of `CC1(C)CCC(C)(C)c2cc(C3(c4ncc(C(=O)O)cn4)CC3)ccc21` [Compound 35, 2-(1-(5,5,8,8-tetramethyl-5,6,7,8-tetrahydronaphthalen-2-yl)cyclopropyl)pyrimidine-5-carboxylic acid], the EC50 on RXRα was determined as 1.3 nM. The “LXRE Activity (% of Bex)” value in data set [1] was 60.6 % of Bex. For the same compound, the “RARE Activity (%RA at 10 nM)” value on human RARα worked out at 5.1 %RA. Moreover, the “Cyto-Toxicity (50% Cell Death)” value in the data set with Saccharomyces cerevisiae is given as “none”.
Regarding `Cc1cc2c(cc1C1(c3ncc(C(=O)O)cn3)CC1)C(C)(C)CC2(C)C` [Compound 33, 2-(1-(1,1,3,3,6-pentamethyl-2,3-dihydro-1H-inden-5-yl)cyclopropyl)pyrimidine-5-carboxylic Acid], the EC50 on RXRα turned out to be 17 nM. Besides, in data set [1], the “LXRE Activity (% of Bex)” value was 50.9 % of Bex and the “LHS Score (vs. Bex)” value is 0.38. The “RARE Activity (%RA at 10 nM)” value at human RARα came out at 5.9 %RA. Also, the “Cyto-Toxicity (50% Cell Death)” value in the data set on Saccharomyces cerevisiae is reported as “none”.
For the compound `C=C(c1ccc(C(=O)O)cc1)c1cc2c(cc1C)C(C)(C)CCC2(C)C` [Compound 1, reference compound], the “Cyto-Toxicity (50% Cell Death)” value in the data set with Saccharomyces cerevisiae came to 0.5 µg/µL.
